What was measured:
PLK2 = target: T1, PLK2 (Homo sapiens, UniProt Q9NYY3); assay: Kinase panel profiling at 1 µmol/L (mobility shift assay, Carna); type: biochemical; settings: 1 µmol/L of BTK inhibitor
T1 construct: purchased Carna Biosciences

PAK5 = target: T2, PAK5 (Homo sapiens, UniProt Q9P286); assay: as above; type: biochemical; settings: 1 µmol/L of BTK inhibitor
T2 construct: purchased Carna Biosciences

CDK4/CycD3 = target: T3, CDK4/CycD3 (Homo sapiens, UniProt P11802); assay: as above; type: biochemical; settings: 1 µmol/L of BTK inhibitor
T3 construct: purchased Carna Biosciences
T3 sequence (P11802 whole entry): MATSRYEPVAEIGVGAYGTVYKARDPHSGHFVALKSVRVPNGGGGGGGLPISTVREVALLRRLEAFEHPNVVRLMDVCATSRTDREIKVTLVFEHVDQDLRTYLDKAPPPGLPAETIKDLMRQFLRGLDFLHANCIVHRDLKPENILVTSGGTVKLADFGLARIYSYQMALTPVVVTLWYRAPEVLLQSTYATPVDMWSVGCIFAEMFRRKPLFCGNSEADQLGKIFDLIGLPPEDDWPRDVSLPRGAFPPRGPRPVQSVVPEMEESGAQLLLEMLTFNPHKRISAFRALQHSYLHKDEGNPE
T3 sequence (P30281 whole entry partner): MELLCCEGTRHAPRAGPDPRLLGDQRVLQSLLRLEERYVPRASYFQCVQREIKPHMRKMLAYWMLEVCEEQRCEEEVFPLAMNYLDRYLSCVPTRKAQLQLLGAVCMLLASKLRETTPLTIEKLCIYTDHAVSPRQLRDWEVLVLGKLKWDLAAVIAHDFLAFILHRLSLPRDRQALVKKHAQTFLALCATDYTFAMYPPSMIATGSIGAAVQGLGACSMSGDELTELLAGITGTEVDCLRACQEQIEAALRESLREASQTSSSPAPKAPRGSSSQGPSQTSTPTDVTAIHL

LCK = target: T4, LCK (Homo sapiens, UniProt P06239); assay: as above; type: biochemical; settings: 1 µmol/L of BTK inhibitor
T4 construct: purchased Carna Biosciences
T4 sequence (P06239 whole entry): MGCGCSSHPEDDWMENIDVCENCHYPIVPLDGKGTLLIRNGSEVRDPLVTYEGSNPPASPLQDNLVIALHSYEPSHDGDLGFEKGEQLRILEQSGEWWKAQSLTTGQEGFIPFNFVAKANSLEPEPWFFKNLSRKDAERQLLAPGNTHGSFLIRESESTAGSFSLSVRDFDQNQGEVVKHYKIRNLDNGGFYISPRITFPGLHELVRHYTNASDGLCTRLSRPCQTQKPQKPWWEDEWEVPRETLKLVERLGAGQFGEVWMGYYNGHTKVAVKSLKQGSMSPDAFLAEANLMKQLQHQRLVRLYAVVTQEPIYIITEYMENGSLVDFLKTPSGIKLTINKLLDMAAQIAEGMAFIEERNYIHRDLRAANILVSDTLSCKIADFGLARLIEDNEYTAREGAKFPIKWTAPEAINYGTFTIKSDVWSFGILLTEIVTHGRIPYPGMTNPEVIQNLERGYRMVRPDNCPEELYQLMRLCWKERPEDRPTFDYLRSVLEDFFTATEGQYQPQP

MARK4 = target: T5, MARK4 (Homo sapiens, UniProt Q96L34); assay: as above; type: biochemical; settings: 1 µmol/L of BTK inhibitor
T5 construct: purchased Carna Biosciences
T5 sequence (Q96L34 1-752): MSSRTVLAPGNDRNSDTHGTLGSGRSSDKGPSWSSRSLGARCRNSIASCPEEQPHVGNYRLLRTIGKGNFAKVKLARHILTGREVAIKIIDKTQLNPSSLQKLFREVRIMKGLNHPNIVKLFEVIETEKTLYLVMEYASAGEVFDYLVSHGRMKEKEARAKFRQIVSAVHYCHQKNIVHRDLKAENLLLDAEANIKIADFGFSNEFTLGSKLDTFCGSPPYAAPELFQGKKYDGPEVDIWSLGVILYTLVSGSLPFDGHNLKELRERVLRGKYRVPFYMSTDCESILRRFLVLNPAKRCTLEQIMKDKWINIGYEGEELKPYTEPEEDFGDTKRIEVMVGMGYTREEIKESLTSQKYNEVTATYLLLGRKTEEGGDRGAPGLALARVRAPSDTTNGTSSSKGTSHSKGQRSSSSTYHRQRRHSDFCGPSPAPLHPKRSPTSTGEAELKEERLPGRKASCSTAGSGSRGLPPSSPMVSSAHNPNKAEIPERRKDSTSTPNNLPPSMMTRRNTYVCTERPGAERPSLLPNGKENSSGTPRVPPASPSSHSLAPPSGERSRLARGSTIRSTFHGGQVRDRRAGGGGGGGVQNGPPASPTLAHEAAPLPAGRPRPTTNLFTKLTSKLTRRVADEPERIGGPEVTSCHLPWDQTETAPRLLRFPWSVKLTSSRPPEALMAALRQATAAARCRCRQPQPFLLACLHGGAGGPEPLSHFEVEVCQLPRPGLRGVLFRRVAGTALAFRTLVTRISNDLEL

ERK1 = ERK1 (Homo sapiens, UniProt P27361); assay: Kinase enzyme activity assay (mobility shift assay, Carna); settings: for Percentage inhibition of kinase enzyme activity: Erk1, 1 µmol/L of BTK inhibitor
Sequence of ERK1 (P27361 whole entry): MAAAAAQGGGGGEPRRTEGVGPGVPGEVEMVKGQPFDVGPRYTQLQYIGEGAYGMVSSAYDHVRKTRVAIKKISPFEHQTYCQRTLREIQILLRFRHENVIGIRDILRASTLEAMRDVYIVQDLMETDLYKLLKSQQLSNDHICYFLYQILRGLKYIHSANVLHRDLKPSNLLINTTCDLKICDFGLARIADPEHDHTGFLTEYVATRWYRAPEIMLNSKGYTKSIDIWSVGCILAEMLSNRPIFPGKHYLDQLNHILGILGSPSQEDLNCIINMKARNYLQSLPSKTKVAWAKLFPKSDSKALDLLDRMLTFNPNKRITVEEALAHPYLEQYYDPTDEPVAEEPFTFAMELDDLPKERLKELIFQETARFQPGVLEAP

FGFR1 = FGFR1 (Homo sapiens, UniProt P11362); assay: as above; settings: for Percentage inhibition of kinase enzyme activity: FGFR1, 1 µmol/L of BTK inhibitor
Sequence of FGFR1 (P11362 22-822): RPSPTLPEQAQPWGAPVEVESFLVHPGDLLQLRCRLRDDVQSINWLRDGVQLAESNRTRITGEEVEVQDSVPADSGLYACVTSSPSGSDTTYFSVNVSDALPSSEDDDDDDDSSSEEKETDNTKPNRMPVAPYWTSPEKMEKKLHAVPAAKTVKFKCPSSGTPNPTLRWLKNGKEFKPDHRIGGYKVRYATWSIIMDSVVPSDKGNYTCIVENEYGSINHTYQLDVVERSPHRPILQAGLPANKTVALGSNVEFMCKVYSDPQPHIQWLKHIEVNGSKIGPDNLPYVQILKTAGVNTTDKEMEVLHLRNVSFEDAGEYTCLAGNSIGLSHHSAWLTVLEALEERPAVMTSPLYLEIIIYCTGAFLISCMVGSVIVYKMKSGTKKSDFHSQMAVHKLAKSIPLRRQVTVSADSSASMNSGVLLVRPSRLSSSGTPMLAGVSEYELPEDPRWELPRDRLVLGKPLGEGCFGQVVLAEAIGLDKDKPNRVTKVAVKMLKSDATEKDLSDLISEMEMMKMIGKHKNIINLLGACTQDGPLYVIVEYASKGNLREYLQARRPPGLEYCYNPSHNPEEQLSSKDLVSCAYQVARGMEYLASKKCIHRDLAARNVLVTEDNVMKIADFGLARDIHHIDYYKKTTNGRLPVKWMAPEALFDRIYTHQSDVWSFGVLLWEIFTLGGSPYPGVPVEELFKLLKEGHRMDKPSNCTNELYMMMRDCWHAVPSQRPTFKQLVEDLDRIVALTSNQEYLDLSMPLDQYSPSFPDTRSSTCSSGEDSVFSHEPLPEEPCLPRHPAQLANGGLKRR

CK1α = target: T6, CK1α (Homo sapiens, UniProt P48729); assay: Kinase panel profiling at 1 µmol/L (mobility shift assay, Carna); type: biochemical; settings: 1 µmol/L of BTK inhibitor
T6 construct: purchased Carna Biosciences
T6 sequence (P48729 whole entry): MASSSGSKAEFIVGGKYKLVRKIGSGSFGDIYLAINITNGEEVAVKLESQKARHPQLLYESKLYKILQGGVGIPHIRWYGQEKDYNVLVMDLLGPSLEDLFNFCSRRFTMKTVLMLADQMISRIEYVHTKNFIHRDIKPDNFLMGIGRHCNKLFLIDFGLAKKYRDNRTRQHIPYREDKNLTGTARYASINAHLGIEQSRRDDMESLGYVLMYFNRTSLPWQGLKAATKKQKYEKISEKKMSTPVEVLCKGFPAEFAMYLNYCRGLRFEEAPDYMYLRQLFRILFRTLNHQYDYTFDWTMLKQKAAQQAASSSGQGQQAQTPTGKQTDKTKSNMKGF

TNK1 = target: T7, TNK1 (Homo sapiens, UniProt Q13470); assay: as above; type: biochemical; settings: 1 µmol/L of BTK inhibitor
T7 construct: purchased Carna Biosciences
T7 sequence (Q13470 1-666): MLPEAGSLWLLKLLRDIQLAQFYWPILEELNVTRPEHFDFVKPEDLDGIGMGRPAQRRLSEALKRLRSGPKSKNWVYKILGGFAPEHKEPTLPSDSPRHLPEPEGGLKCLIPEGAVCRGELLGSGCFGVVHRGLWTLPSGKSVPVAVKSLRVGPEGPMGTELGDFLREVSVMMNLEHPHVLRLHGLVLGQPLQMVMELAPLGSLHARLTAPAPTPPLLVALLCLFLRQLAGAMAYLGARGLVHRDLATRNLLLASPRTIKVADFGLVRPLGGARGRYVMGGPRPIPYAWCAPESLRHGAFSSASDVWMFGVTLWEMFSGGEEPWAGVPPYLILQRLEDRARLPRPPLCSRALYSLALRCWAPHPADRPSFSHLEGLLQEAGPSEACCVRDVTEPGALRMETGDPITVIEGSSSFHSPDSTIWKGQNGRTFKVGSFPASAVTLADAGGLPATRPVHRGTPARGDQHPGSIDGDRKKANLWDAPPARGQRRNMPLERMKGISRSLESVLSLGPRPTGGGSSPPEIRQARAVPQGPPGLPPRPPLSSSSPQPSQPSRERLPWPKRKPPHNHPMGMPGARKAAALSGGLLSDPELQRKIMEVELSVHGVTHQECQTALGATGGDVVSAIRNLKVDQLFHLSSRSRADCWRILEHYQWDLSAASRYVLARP

DDR2 = target: T8, DDR2 (Homo sapiens, UniProt Q16832); assay: as above; type: biochemical; settings: 1 µmol/L of BTK inhibitor
T8 construct: purchased Carna Biosciences
T8 sequence (Q16832 22-855): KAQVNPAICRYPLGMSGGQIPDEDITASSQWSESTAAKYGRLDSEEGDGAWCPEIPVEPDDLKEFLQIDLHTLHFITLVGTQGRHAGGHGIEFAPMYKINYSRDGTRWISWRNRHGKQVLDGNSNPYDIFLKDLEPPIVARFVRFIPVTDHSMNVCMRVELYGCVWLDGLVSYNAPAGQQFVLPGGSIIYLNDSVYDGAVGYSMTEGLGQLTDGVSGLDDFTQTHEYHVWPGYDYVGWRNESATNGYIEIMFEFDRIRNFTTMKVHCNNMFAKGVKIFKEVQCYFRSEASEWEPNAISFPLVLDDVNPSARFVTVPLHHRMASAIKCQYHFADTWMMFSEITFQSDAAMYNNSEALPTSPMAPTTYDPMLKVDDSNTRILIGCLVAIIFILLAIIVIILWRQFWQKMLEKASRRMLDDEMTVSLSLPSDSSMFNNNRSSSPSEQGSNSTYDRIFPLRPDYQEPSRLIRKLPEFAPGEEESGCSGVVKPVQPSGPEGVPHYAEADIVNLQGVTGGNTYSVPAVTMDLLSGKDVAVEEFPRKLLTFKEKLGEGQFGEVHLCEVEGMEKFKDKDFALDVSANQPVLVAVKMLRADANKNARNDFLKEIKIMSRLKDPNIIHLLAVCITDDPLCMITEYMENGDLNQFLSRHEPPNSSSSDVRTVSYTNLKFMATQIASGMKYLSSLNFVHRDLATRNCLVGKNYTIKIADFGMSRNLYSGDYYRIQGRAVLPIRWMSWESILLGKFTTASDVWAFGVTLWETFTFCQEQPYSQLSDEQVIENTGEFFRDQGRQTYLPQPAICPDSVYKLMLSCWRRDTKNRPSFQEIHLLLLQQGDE

T1 sequence (Q9NYY3 whole entry): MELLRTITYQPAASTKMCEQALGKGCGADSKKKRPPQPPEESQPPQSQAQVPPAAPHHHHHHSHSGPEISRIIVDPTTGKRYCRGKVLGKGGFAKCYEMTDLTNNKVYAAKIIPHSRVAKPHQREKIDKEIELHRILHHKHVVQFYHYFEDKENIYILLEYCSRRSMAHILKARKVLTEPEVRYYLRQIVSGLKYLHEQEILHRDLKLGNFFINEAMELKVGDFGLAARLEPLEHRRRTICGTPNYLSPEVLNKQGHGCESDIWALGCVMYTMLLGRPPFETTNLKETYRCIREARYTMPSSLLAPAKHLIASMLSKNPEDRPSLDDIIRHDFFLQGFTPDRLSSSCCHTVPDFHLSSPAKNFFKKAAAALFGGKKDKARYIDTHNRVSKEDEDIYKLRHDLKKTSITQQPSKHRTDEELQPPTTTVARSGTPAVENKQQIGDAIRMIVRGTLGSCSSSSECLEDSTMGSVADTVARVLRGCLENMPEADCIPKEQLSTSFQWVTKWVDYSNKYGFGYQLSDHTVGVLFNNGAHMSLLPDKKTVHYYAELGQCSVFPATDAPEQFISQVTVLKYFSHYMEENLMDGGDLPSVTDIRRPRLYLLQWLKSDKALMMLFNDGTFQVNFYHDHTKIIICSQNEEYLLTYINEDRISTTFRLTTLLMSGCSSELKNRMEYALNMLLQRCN
T2 sequence (Q9P286 whole entry): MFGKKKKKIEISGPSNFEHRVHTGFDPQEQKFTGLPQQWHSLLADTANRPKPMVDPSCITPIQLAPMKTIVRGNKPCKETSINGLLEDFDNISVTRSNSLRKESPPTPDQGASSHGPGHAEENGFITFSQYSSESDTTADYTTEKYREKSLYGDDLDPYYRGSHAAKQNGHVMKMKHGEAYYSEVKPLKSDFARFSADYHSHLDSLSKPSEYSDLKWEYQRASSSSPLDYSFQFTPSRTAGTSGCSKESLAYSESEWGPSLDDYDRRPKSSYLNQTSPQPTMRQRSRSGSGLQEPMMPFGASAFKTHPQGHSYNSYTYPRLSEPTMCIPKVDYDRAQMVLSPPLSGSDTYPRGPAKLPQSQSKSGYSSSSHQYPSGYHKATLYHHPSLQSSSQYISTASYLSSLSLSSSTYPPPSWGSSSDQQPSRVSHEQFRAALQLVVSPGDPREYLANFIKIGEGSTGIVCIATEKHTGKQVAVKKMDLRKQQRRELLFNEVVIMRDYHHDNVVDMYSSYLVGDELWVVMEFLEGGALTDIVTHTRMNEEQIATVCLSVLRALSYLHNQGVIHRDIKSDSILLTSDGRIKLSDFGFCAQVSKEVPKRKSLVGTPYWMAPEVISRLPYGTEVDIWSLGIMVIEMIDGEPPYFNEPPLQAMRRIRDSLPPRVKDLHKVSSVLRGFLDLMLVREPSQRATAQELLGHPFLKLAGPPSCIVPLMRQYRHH

SMILES | Percentage inhibition of kinase enzyme activity (PLK2) | Percentage inhibition of kinase enzyme activity (PAK5) | Percentage inhibition of kinase enzyme activity (CDK4/CycD3) | Percentage inhibition of kinase enzyme activity (LCK) | Percentage inhibition of kinase enzyme activity (MARK4) | Percentage inhibition of kinase enzyme activity (ERK1) | Percentage inhibition of kinase enzyme activity (FGFR1) | Percentage inhibition of kinase enzyme activity (CK1α) | Percentage inhibition of kinase enzyme activity (TNK1) | Percentage inhibition of kinase enzyme activity (DDR2) | IC50 (ERK1) | Inhibition of ERK1 (ERK1) | IC50 (FGFR1)
CC#CC(=O)N1CCC[C@H]1c1nc(-c2ccc(C(=O)Nc3ccccn3)cc2)c2c(N)nccn12 [acalabrutinib] | 2.47% | -0.37% | -13.28% | 6.84% | -15.24% | -2.38% | -2.28% | 10.47% | -1.80% | 6.23% | – | – | –
C=CC(=O)N1CCC([C@@H]2CCNc3c(C(N)=O)c(-c4ccc(Oc5ccccc5)cc4)nn32)CC1 [zanubrutinib] | – | – | – | 0.21% | – | – | -5.28% | – | – | – | – | – | –
O=C(c1ccc(Oc2ccccc2)cc1Cl)c1c[nH]c2ncnc(N[C@@H]3CC[C@@H](CO)OC3)c12 [nemtabrutinib] | 3.06% | 66.81% | 0.33% | 70.86% | 20.90% | 61.74% | 46.81% | 33.46% | 75.62% | 93.92% | 543 nM | did not inhibit | 134 nM
COc1ccc(F)cc1C(=O)NCc1ccc(-c2nn([C@@H](C)C(F)(F)F)c(N)c2C(N)=O)cc1 [pirtobrutinib] | 2.89% | -1.30% | 4.05% | 30.64% | -2.93% | -1.16% | 3.30% | 9.63% | 3.07% | 9.58% | – | – | –
C=CC(=O)N1CCC[C@@H](n2nc(-c3ccc(Oc4ccccc4)cc3)c3c(N)ncnc32)C1 [ibrutinib] | 1.72% | 12.42% | 4.00% | 100.25% | -14.26% | 1.74% | 70.87% | -1.93% | 6.17% | 17.34% | – | – | –
